Experimental data published in patent US5480645A, “Hydroxyamines N-acyl derivatives having scavenger activity and useful in acute and chronic pathologies associated with peroxidation and inflammation phenomena” (LifeGroup S.p.A., priority 1992, dated 1996).
Where two headings read alike, the source gives them in different places. Where no end group is shown, it is not given here.

What was measured:
[1] = test system: granular cerebellar cells; assay: Protection against 2 mM glutamate cytotoxicity in immature granular cerebellar cell cultures
Solubility = assay type: physicochemical; details: for solubility: organic solvent or mixture, read-out: solubility in org. solv.
[2] = test system: rat liver microsomes (membrane phospholipid peroxidation); assay: Antiperoxidative activity on rat liver microsomes, NADPH/Fe+2/ADP induced peroxidation (MDA formation); assay type: biochemical
Procedure: Before the final resuspension mitochondria ape washed with 0.125M KCl containing 15 mM Hepes/10 mM tris at pH=7.4. Rat liver microsomes are prepared as described by Ernster and Nordenbrand (Ernster, Nordenbrand K. Methods Enzymol. 1967, 10:574-80). […]
b) 20 mM Hepes-Tris buffer pH=7.4, 0.5 mM cumene hydroperoxide in the presence or in the absence of the compounds to be tested. The trials after incubation are interrupted with 1 ml 35% TCA which 30 mg BHT and 1 ml 1% TBA (thiobarbituric acid) have been added to. Subsequently the incubation is carried out for 15' at 90° C. in order to allow the development of the coloured adduct.
(§1) A common oxidation product, malonyldialdehyde (MDA), to the two oxidant systems described in (a) and in (b), is measured.
The formed MDA is evaluated by spectrophotometry at 532 nm and calculated by using a molar extinction coefficient of 156.000 (Buege J. A. and Aust S. D., Methods Enzymol., 52, 302-310, 1978).
The tested compounds are solubilized in the culture medium up to the desired concentrations (see tables 1-3). […]
The antiperoxidase activity is measured as % of inhibition of malonyldialdehyde formation.

C6 glioma cells = assay: Protection against 5 mM glutamate cytotoxicity in glioma C6 cultures
[3] = test system: rat cerebellar granular cells; assay: Protection against glutamate neurotoxicity in rat cerebellar granular cell cultures; assay type: cell-based; details: glutamate alone, 50 μM; Table 4; control 100; 1440 min
Procedure: Primary cerebellar granular cell cultures are prepared from 8 days old Sprague-Dawly rats. Neurons are grown on 35 mm plates for 7-8 days. […] Glial cells proliferation is prevented by cytosine arabinose-furanoside.
Cells are washed in Locke solution free from Mg^2+ then replated in the conditionned culture medium.
The solution is diluted serially up to 10, 20 and 50 μM. The compounds at the desired concentrations are added to the cells at 37 ° C.; after 15' 50 μM glutamate free from Mg^2+ is added For 15 minutes at 22 ° C.
The cells are then washed 3 times with Locke solution, then added to the original culture medium and maintained at 37 ° C. in 5 % CO2 for 24 hours.
The cellular survival is measured by using a fluorescence microscope.

mast cells = assay: In vivo antidegranulating activity in rat mast cells (substance P induced); parameters: species or system Sprague Dawley rats
Procedure: 1. In vivo antidegranulating activity in rat mast cells.
The pharmacological treatment is preceded (20 min. before) by the degranulating stimulus induced by P substance (10^-6 M) injected in the auricular pinna. After 20 minutes from the degranulating stimulus, the animals are sacrificed. Their tissues are then taken (auricular pavilion) for the morphological aspect analysis of the mast cells residing in the connective tissues after fixation and coloration with toluidine blue.
The inhibition level of the mast cells degranulation in the animal tissue treated with the tested compounds in comparison with the animals treated only with the degranulating agent is considered as the parameter of the biological activity.
*the inhibition percentage is calculated considering that the effect of
the substance P is maximum (100% of mast cells degranulation).

[4] = test system: rat liver microsomes (membrane phospholipid peroxidation); assay: Antiperoxidative activity on rat liver microsomes, cumene hydroperoxide induced peroxidation (MDA formation); assay type: biochemical; details: 0.5 mM cumene hydroperoxyde, Table 3; for MDA: control 12.8
Procedure: b) 20 mM Hepes-Tris buffer pH=7.4, 0.5 mM cumene hydroperoxide in the presence or in the absence of the compounds to be tested. […] Subsequently the incubation is carried out for 15' at 90° C. in order to allow the development of the coloured adduct.
as §1
The tested compounds are solubilized in the culture medium up to the desired concentrations (see tables 1-3).
As peroxidant agent 0.5 mM cumene hydroperoxyde is used. As oxidation index the formation of malonyldialdehyde (MDA) is measured (nmoles/mg protein).

[5] = Mus musculus, 24 h, read-out: % Cellular survival
[6] = Rattus norvegicus, C6 glioma, 24 h, read-out: % Cell survival
[7] = 10 μM, NADPH/Fe+2/ATP, Table 1-A
[8] = 10 μM, NADPH/Fe+2/ATP, Table 1-A, control 42.5
[9] = 20 μM, NADPH/Fe+2/ATP, Table 1-A
[10] = 20 μM, NADPH/Fe+2/ATP, Table 1-A, control 42.5
[11] = 40 μM, preincubation time 0 minutes, ADP/NADPH/Fe, Table 2
[12] = 40 μM, preincubation time 15 minutes, ADP/NADPH/Fe, Table 2
[13] = 40 μM, preincubation time 30 minutes, ADP/NADPH/Fe, Table 2
[14] = 40 μM, preincubation time 45 minutes, ADP/NADPH/Fe, Table 2
[15] = 40 μM, preincubation time 60 minutes, ADP/NADPH/Fe, Table 2

Cc1c(C)c2c(c(C)c1O)CCC(C)(C(=O)NCCCO)O2 (centres unmarked) [Example 4, N-(6-hydroxy-2,5,7,8-tetramethylchroman-2-carboxyl)-propanolamine] showed a viability at 1 µM [1, 5] of 39%, a viability at 3 µM [1, 5] of 60% and a viability at 10 µM [1, 5] of 77%. For the same molecule, the solubility (Solubility; in ethanol, DMSO, chloroform) was greater than 10000 µg/mL, the water solubility (Solubility) was “slightly soluble” and the “peroxidation inhibition” value ([2]; 10 μM, Table 1-B, first series) was 37%. The MDA ([2]; 10 μM, Table 1-B, first series (control 46.27)) was 28.96 nmoles/mg/protein, the “peroxidation inhibition” value ([2]; 20 μM, Table 1-B, first series) was 95.5% and the MDA ([2]; 20 μM, Table 1-B, first series (control 46.27)) was 1.61 nmoles/mg/protein. For the same molecule, the “peroxidation inhibition” value ([2]; 40 μM, Table 1-B, first series) was 97.7%, the MDA ([2]; 40 μM, Table 1-B, first series (control 46.27)) was 1.07 nmoles/mg/protein and the “peroxidation inhibition” value ([2]; 60 μM, Table 1-B, first series) was 97.7%. For the same molecule, the MDA ([2]; 60 μM, Table 1-B, first series (control 46.27)) was 1.04 nmoles/mg/protein, the “peroxidation inhibition” value ([2]; 80 μM, Table 1-B, first series) was 97.7% and the MDA ([2]; 80 μM, Table 1-B, first series (control 46.27)) was 1.07 nmoles/mg/protein. For the same molecule, the “peroxidation inhibition” value ([2]; 100 μM, Table 1-B, first series) was 99.3%, the MDA ([2]; 100 μM, Table 1-B, first series (control 46.27)) was 0.30 nmoles/mg/protein and the viability at 1 µM (C6 glioma cells; [6]) was 10%. It also gave a viability at 3 µM (C6 glioma cells; [6]) of 94% and a viability at 10 µM (C6 glioma cells; [6]) of 90%.
In the case of N[C@@H](CCC(=O)O)C(=O)O [Glutamate, reference compound], the cell death ([1]; 2 mM glutamate for 24 hours, immature granular cerebellar cells) is reported as 60+70%, the “% Cellular survival” value ([1]; glutamate alone, 2 mM, 24 hours, Table 6) is reported as 30% and the cellular degeneration (C6 glioma cells; 5 mM glutamate for 24 hours) is reported as 90%. The “% Cell survival” value (C6 glioma cells; glutamate alone, 5 mM, 24 hours, Table 5) was 7% and the cell survival [3] was 3%.
In the case of “substance P: degranulating stimulus injected in the auricular pinna (RPKPQQFFGLM; ends and bridges not checked; UniProt P20366 58-68, looked up) [reference compound]”, the mast cells degranulation (mast cells; induced by substance P, of the numbered mast cells) is reported as 85-95%.
Cc1c(C)c2c(c(C)c1O)CC(CC(=O)O)O2 (centres unmarked) [5-hydroxy-4,6,7-trimethyl-2,3-dihydrobenzofuran-2-acetic acid, reference compound] gave a peroxidation inhibition [2, 7] of 0%, an MDA [2, 8] of 44.19 nmoles/mg prot and a peroxidation inhibition [2, 9] of 12%. The MDA [2, 10] was 37.3 nmoles/mg prot, the peroxidation inhibition ([4]; 20 μM) was 28% and the MDA ([4]; 20 μM) was 9.25 nmoles/mg prot. It also gave a peroxidation inhibition ([4]; 50 μM) of 42% and an MDA ([4]; 50 μM) of 7.5 nmoles/mg prot.
Molecule CC(=O)Oc1c(C)c(C)c2c(c1C)CCC(C)(CCC[C@H](C)CCC[C@H](C)CCCC(C)C)O2 (some centres unmarked) [Vit. E acetate, reference compound] has a peroxidation inhibition [2, 7] of 0%, an MDA [2, 8] of 51.08 nmoles/mg prot and a peroxidation inhibition [2, 9] of 0%. The MDA [2, 10] was 49.34 nmoles/mg prot, the peroxidation inhibition [2, 11] was 1.90% and the peroxidation inhibition [2, 12] was 18.20%. It also gave a peroxidation inhibition [2, 13] of 28.95%, a peroxidation inhibition [2, 14] of 35.80% and a peroxidation inhibition [2, 15] of 40.35%. For the same molecule, the “inhibition of the peroxidation induced by NADPH/Fe+2/ADP (in words)” value ([2]; in vitro, 10 to 50 μM dose/effect relationship for the test compound) was “inactive in the in-vitro systems”, the peroxidation inhibition ([4]; 20 μM) was 0% and the MDA ([4]; 20 μM) was 14.29 nmoles/mg prot. It also gave a peroxidation inhibition ([4]; 50 μM) of 0% and an MDA ([4]; 50 μM) of 11.57 nmoles/mg prot.
Work on Cc1c(C)c2c(c(C)c1O)CC(CC(=O)NCCCO)O2 (centres unmarked) [Example 5, N-[2-(2,3-dihydro-5-hydroxy-4,6,7-trimethylbenzofuran)-acetyl]-propanolamine] yielded a viability at 1 µM [1, 5] of 52%, a viability at 10 µM [1, 5] of 83% and a viability at 30 µM [1, 5] of 86%. The solubility (Solubility; in ethanol, DMSO, chloroform) was greater than 10000 µg/mL, the water solubility (Solubility) was “slightly soluble” and the “peroxidation inhibition” value ([2]; 10 μM, Table 1-B, second series) was 24.0 ± 1.0%. For the same molecule, the MDA ([2]; 10 μM, Table 1-B, second series (control 42.50 ± 2.4)) was 32.32 ± 0.4 nmoles/mg/protein, the “peroxidation inhibition” value ([2]; 20 μM, Table 1-B, second series) was 58.0 ± 7.0% and the MDA ([2]; 20 μM, Table 1-B, second series (control 42.50 ± 2.4)) was 17.87 ± 2.9 nmoles/mg/protein. The “peroxidation inhibition” value ([2]; 40 μM, Table 1-B, second series) was 94.0 ± 3.0%, the MDA ([2]; 40 μM, Table 1-B, second series (control 42.50 ± 2.4)) was 2.57 ± 1.3 nmoles/mg/protein and the “peroxidation inhibition” value ([2]; 60 μM, Table 1-B, second series) was 95.0 ± 3.0%. The MDA ([2]; 60 μM, Table 1-B, second series (control 42.50 ± 2.4)) was 2.10 ± 1.2 nmoles/mg/protein, the “peroxidation inhibition” value ([2]; 80 μM, Table 1-B, second series) was 94.0 ± 3.0% and the MDA ([2]; 80 μM, Table 1-B, second series (control 42.50 ± 2.4)) was 2.54 ± 1.3 nmoles/mg/protein. It also gave a viability at 1 µM (C6 glioma cells; [6]) of 8%, a viability at 3 µM (C6 glioma cells; [6]) of 66% and a viability at 10 µM (C6 glioma cells; [6]) of 91%.
Cc1c(C)c2c(c(C)c1O)CCC(C)(C(=O)O)O2 (centres unmarked) [6-hydroxy-2,5,7,8-tetramethylchroman-2-carboxylic acid, reference compound] showed a viability at 10 µM [1, 5] of 43%, a viability at 50 µM [1, 5] of 54% and a viability at 100 µM [1, 5] of 84%. It also gave a viability at 10 µM (C6 glioma cells; [6]) of 7%, a viability at 30 µM (C6 glioma cells; [6]) of 37% and a viability at 100 µM (C6 glioma cells; [6]) of 94%.
CC(=O)OCCNC(=O)C1(C)CCc2c(C)c(OC(C)=O)c(C)c(C)c2O1 (centres unmarked) [Example 3, 6-acetoxy-2,5,7,8-tetramethyl-chroman-2-(2-acetoxyethyl)-carboxyamide] gave a viability at 1 µM [1, 5] of 49%, a viability at 10 µM [1, 5] of 60% and a viability at 30 µM [1, 5] of 77%. For the same molecule, the solubility (Solubility; in ethanol) was greater than 10000 µg/mL, the water solubility (Solubility) was “slightly soluble” and the “peroxidation inhibition” value ([2]; 2.5 μM, Table 1-B, third series) was 23.1%. The MDA ([2]; 2.5 μM, Table 1-B, third series (control 37.4)) was 28.8 nmoles/mg/protein, the “peroxidation inhibition” value ([2]; 5 μM, Table 1-B, third series) was 41.6% and the MDA ([2]; 5 μM, Table 1-B, third series (control 37.4)) was 21.8 nmoles/mg/protein. The “peroxidation inhibition” value ([2]; 10 μM, Table 1-B, third series) was 53.8%, the MDA ([2]; 10 μM, Table 1-B, third series (control 37.4)) was 17.2 nmoles/mg/protein and the “peroxidation inhibition” value ([2]; 20 μM, Table 1-B, third series) was 62.1%. The MDA ([2]; 20 μM, Table 1-B, third series (control 37.4)) was 14.1 nmoles/mg/protein, the viability at 1 µM (C6 glioma cells; [6]) was 17% and the viability at 3 µM (C6 glioma cells; [6]) was 40%. For the same molecule, the viability at 10 µM (C6 glioma cells; [6]) was 82%.
With Cc1c(C)c2c(c(C)c1OC(=O)CCC(=O)NCCO)CCC(C)(CCCC(C)CCCC(C)CCCC(C)C)O2 [Example 2, D-α-tocopherol acid succinate 2-hydroxyethylamide] the “inhibition % (mast cells degranulation induced by substance P)” value (mast cells; s.c. 20 mg/kg, substance P 10^-6 M in auricular pinna, substance P effect taken as 100% degranulation) was 38.5%, the solubility (Solubility; in ethanol and chloroform) was greater than 10000 µg/mL and the water solubility (Solubility) was “slightly soluble”. The peroxidation inhibition [2, 11] was 1.40%, the peroxidation inhibition [2, 12] was 17.30% and the peroxidation inhibition [2, 13] was 29.50%. For the same molecule, the peroxidation inhibition [2, 14] was 37.90%, the peroxidation inhibition [2, 15] was 40.90% and the viability at 10 µM (C6 glioma cells; [6]) was 10%. The viability at 30 µM (C6 glioma cells; [6]) was 80%.
